Test results published in patent publication US10988523B2, “Modified lipidated Relaxin B chain peptides and their therapeutic use” (Sanofi, priority 2018, dated 2021).
*1 amine or outer side, *2 acyl side, *3 side chain or, on linkers, in order; H or OH if unused. Where a SMILES comes first, the peptide text is derived from it. Side-chain parts run from the residue outwards. [ ]: non-standard residue; d: D form. The star is where a group is joined. X9 = CCCCCCCCCCCCCCCCCC(=O)N[C@@H](CCC(=O)N[C@@H](CCC(=O)N[C@@H](CCC(=O)NCCCC[C@H](NC(=O)COCC(=O)NCCCOCCOCCOCCCN*)C(N)=O)C(=O)O)C(=O)O)C(=O)O; PEG12 = NCCOCCOCCOCCOCCOCCOCCOCCOCCOCCOCCOCCOCCC(=O)O; γGlu = O=C(O)[C@H](CCC(=O)[*:2])N[*:1]; Stearoyl = CCCCCCCCCCCCCCCCCC(=O)*; Palmitoyl = CCCCCCCCCCCCCCCC(=O)*; Nle = CCCC[C@H](N)C(=O)O; AEEA = NCCOCCOCC(=O)O; Aib = CC(C)(N)C(=O)O

Target: T1, RXFP1 (Homo sapiens, UniProt Q9HBX9)
T1 construct: OVCAR5 cells expressing endogenous RXFP1; endogenous in cells; host or cells: OVCAR5 cells
T1 sequence (Q9HBX9 1-757): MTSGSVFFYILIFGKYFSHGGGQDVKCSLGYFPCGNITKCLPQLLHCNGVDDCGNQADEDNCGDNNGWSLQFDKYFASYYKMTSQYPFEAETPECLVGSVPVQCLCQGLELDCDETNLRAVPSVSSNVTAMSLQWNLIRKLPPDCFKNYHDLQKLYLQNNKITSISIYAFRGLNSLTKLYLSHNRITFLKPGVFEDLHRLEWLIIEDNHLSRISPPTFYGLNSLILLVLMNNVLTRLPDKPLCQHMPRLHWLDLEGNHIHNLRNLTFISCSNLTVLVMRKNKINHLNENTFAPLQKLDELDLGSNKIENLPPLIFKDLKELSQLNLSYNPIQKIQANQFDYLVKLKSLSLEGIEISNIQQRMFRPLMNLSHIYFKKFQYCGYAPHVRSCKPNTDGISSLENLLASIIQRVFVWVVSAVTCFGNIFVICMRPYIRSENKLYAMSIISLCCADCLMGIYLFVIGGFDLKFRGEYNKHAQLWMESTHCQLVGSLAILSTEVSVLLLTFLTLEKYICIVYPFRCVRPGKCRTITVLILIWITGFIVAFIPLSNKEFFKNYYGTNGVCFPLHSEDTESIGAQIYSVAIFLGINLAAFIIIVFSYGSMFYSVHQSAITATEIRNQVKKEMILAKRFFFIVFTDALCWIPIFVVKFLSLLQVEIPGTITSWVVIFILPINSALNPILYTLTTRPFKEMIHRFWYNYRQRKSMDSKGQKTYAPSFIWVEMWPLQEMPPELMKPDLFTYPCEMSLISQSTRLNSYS
Assay: OVCAR5 cAMP assay (HTRF), RXFP1 agonist activity
Assay type: cell-based
Conditions: for Emax: OVCAR-5, maximal cAMP relative to H2-relaxin maximum (100%), read-out: EMax, OVCAR 5 cells (cAMP); for EC50: OVCAR5 cells, cAMP HTRF, read-out: EC50 (nM), OVCAR 5 cells (cAMP)
From the text: OVCAR5 cells expressing endogenous RXFP1 were used to test RXP1 agonist properties of peptides of the invention, and in particular of the peptides of sequence SEQ ID NO: 1-193.
Since RXFP1 is a Gs coupled GPCR, cAMP was used as readout of RXFP1 activation.
Isobutyl Methyl Xanthine (IBMX) was used to inhibit phosphodiesterase activity facilitating cAMP measurements. HTRF (Homogenous Time Resolved Fluorescence) technology was used to detect cAMP due to its great sensitivity.
In summary, OVCAR5 were grown in regular medium (RPMI) containing 10% fetal calf serum (FCS) and 1% antibiotics (penicillin/streptomycin).
Before the experiments, cells were detached with accutase and incubated for 40 minutes at 37° C. with 1 mM (3-isobutyl-1-methylxanthine) IBMX.
Cells were then distributed in 384 black well plates containing increasing concentrations of the different peptides in a fix volume of medium (without FCS).
After an incubation of 30 min at 37° C. in an humid incubator in 5% CO2, the reaction was stopped by adding a fixed volume of a solution containing a lysis buffer and cAMP-D2 (cAMP labeled with the dye d2) and the anti cAMP antibody linked to Europium and used for cAMP detection.
Readout of the experiment were performed on a fluorimeter allowing HTRF measurement. Activation curves were generated by plotting the intracellular value of cAMP versus log 10 of the compound concentration.
The 50% activation concentration (EC50) was calculated by nonlinear regression using the sigmoidal dose-response (variable slope) equation with Prism 5 software.
Emax % is determined as the maximal intracellular value of cAMP for test compound (upper limit of cAMP vs concentration curve) divided by the maximal intracellular value of cAMP for H2-relaxin determined in the same test occasion multiplied by 100. Emax %=100×[cAMPtest cpd]/[cAMPH2-RlX]

| SMILES | Emax | EC50 |
| --- | --- | --- |
| CCCCCCCCCCCCCCCC(=O)N[C@@H](CCC(=O)N[C@@H](CCC(=O)N[C@@H](CCC(=O)NCCCC[C@H](NC(=O)COCCOCCNC(=O)[C@H](CCCCN)NC(=O)[C@H](CCCNC(=N)N)NC(=O)C(C)(C)NC(=O)[C@H](CO)NC(=O)[C@H](Cc1c[nH]c2ccccc12)NC(=O)[C@@H](NC(=O)[C@H](CO)NC(=O)[C@H](CCCC)NC(=O)CNC(=O)[C@H](CCC(=O)O)NC(=O)C(C)(C)NC(=O)C(C)(C)NC(=O)[C@@H](NC(=O)[C@H](CCC(N)=O)NC(=O)[C@H](C)NC(=O)[C@H](CCCNC(=N)N)NC(=O)[C@@H](NC(=O)[C@H](CCCCN)NC(=O)[C@H](CCC(=O)O)NC(=O)[C@H](CCCNC(=N)N)NC(=O)CNC(=O)[C@H](CCC(=O)O)NC(=O)[C@H](CC(C)C)NC(C)=O)C(C)C)[C@@H](C)CC)[C@@H](C)O)C(N)=O)C(=O)O)C(=O)O)C(=O)O [compound 10] (Ac-LEGREKVRAQI[Aib][Aib]EG[Nle]STWS[Aib]RK[AEEA]K([γGlu-γGlu-γGlu-Palmitoyl])-NH2) | 96% | – |
| CCCCCCCCCCCCCCCC(=O)N[C@@H](CCC(=O)N[C@@H](CCC(=O)N[C@@H](CCC(=O)NCCCC[C@H](NC(=O)COCCOCCNC(=O)COCCOCCNC(=O)[C@H](CCCCN)NC(=O)[C@H](CCCNC(=N)N)NC(=O)C(C)(C)NC(=O)[C@H](CO)NC(=O)[C@H](Cc1c[nH]c2ccccc12)NC(=O)[C@@H](NC(=O)[C@H](CO)NC(=O)[C@H](CCCC)NC(=O)CNC(=O)[C@H](CCC(=O)O)NC(=O)C(C)(C)NC(=O)C(C)(C)NC(=O)[C@@H](NC(=O)[C@H](CCC(N)=O)NC(=O)[C@H](C)NC(=O)[C@H](CCCNC(=N)N)NC(=O)[C@@H](NC(=O)[C@H](CCCCN)NC(=O)[C@H](CCC(=O)O)NC(=O)[C@H](CCCNC(=N)N)NC(=O)CNC(=O)[C@H](CCC(=O)O)NC(=O)[C@H](CC(C)C)NC(C)=O)C(C)C)[C@@H](C)CC)[C@@H](C)O)C(N)=O)C(=O)O)C(=O)O)C(=O)O [compound 11] (Ac-LEGREKVRAQI[Aib][Aib]EG[Nle]STWS[Aib]RK[AEEA][AEEA]K([γGlu-γGlu-γGlu-Palmitoyl])-NH2) | 89% | – |
| CCCCCCCCCCCCCCCC(=O)N[C@@H](CCC(=O)N[C@@H](CCC(=O)N[C@@H](CCC(=O)NCCOCCOCC(=O)NCCCC[C@H](NC(=O)COCCOCCNC(=O)[C@H](CCCCN)NC(=O)[C@H](CCCNC(=N)N)NC(=O)C(C)(C)NC(=O)[C@H](CO)NC(=O)[C@H](Cc1c[nH]c2ccccc12)NC(=O)[C@@H](NC(=O)[C@H](CO)NC(=O)[C@H](CCCC)NC(=O)CNC(=O)[C@H](CCC(=O)O)NC(=O)C(C)(C)NC(=O)C(C)(C)NC(=O)[C@@H](NC(=O)[C@H](CCC(N)=O)NC(=O)[C@H](C)NC(=O)[C@H](CCCNC(=N)N)NC(=O)[C@@H](NC(=O)[C@H](CCCCN)NC(=O)[C@H](CCC(=O)O)NC(=O)[C@H](CCCNC(=N)N)NC(=O)CNC(=O)[C@H](CCC(=O)O)NC(=O)[C@H](CC(C)C)NC(C)=O)C(C)C)[C@@H](C)CC)[C@@H](C)O)C(N)=O)C(=O)O)C(=O)O)C(=O)O [compound 12] (Ac-LEGREKVRAQI[Aib][Aib]EG[Nle]STWS[Aib]RK[AEEA]K([AEEA-γGlu-γGlu-γGlu-Palmitoyl])-NH2) | 76% | 26.7 nM |
| CCCCCCCCCCCCCCCC(=O)N[C@@H](CCC(=O)N[C@@H](CCC(=O)N[C@@H](CCC(=O)NCCOCCOCC(=O)NCCOCCOCC(=O)NCCCC[C@H](NC(=O)COCCOCCNC(=O)[C@H](CCCCN)NC(=O)[C@H](CCCNC(=N)N)NC(=O)C(C)(C)NC(=O)[C@H](CO)NC(=O)[C@H](Cc1c[nH]c2ccccc12)NC(=O)[C@@H](NC(=O)[C@H](CO)NC(=O)[C@H](CCCC)NC(=O)CNC(=O)[C@H](CCC(=O)O)NC(=O)C(C)(C)NC(=O)C(C)(C)NC(=O)[C@@H](NC(=O)[C@H](CCC(N)=O)NC(=O)[C@H](C)NC(=O)[C@H](CCCNC(=N)N)NC(=O)[C@@H](NC(=O)[C@H](CCCCN)NC(=O)[C@H](CCC(=O)O)NC(=O)[C@H](CCCNC(=N)N)NC(=O)CNC(=O)[C@H](CCC(=O)O)NC(=O)[C@H](CC(C)C)NC(C)=O)C(C)C)[C@@H](C)CC)[C@@H](C)O)C(N)=O)C(=O)O)C(=O)O)C(=O)O [compound 13] (Ac-LEGREKVRAQI[Aib][Aib]EG[Nle]STWS[Aib]RK[AEEA]K([AEEA-AEEA-γGlu-γGlu-γGlu-Palmitoyl])-NH2) | 81% | – |
| CCCCCCCCCCCCCCCCCC(=O)N[C@@H](CCC(=O)N[C@@H](CCC(=O)N[C@@H](CCC(=O)N[C@@H](CCC(=O)NCCCC[C@H](NC(=O)COCCOCCNC(=O)COCCOCCNC(=O)COCCOCCNC(=O)COCCOCCNC(=O)[C@H](CCCCN)NC(=O)[C@H](CCCCN)NC(=O)[C@H](CCCNC(=N)N)NC(=O)C(C)(C)NC(=O)[C@H](CO)NC(=O)[C@H](Cc1c[nH]c2ccccc12)NC(=O)[C@@H](NC(=O)[C@H](CO)NC(=O)[C@H](CCCC)NC(=O)CNC(=O)[C@H](CCC(=O)O)NC(=O)C(C)(C)NC(=O)C(C)(C)NC(=O)[C@@H](NC(=O)[C@H](CCCCNC(C)=O)NC(=O)[C@H](C)NC(=O)[C@H](CCCNC(=N)N)NC(=O)[C@@H](NC(=O)[C@H](CCCCN)NC(=O)[C@H](CCC(=O)O)NC(=O)[C@H](CCCNC(=N)N)NC(=O)CNC(=O)[C@H](CCC(=O)O)NC(=O)[C@H](CC(C)C)NC(C)=O)C(C)C)[C@@H](C)CC)[C@@H](C)O)C(N)=O)C(=O)O)C(=O)O)C(=O)O)C(=O)O [compound 15] (Ac-LEGREKVRAK(Ac)I[Aib][Aib]EG[Nle]STWS[Aib]RKK[AEEA][AEEA][AEEA][AEEA]K([γGlu-γGlu-γGlu-γGlu-Stearoyl])-NH2) | 92% | 0.32 nM |
| CCCCCCCCCCCCCCCCCC(=O)N[C@@H](CCC(=O)N[C@@H](CCC(=O)N[C@@H](CCC(=O)NCCCC[C@H](NC(=O)COCC(=O)NCCCOCCOCCOCCCNC(=O)[C@H](CCCCNC(C)=O)NC(=O)[C@H](CCCCN)NC(=O)[C@H](CCCNC(=N)N)NC(=O)C(C)(C)NC(=O)[C@H](CO)NC(=O)[C@H](Cc1c[nH]c2ccccc12)NC(=O)[C@@H](NC(=O)[C@H](CO)NC(=O)[C@H](CCCC)NC(=O)CNC(=O)[C@H](CCC(=O)O)NC(=O)C(C)(C)NC(=O)C(C)(C)NC(=O)[C@@H](NC(=O)[C@H](CCCCNC(C)=O)NC(=O)[C@H](C)NC(=O)[C@H](CCCNC(=N)N)NC(=O)[C@@H](NC(=O)[C@H](CCCCN)NC(=O)[C@H](CCC(=O)O)NC(=O)[C@H](CCCNC(=N)N)NC(=O)CNC(=O)[C@H](CCC(=O)O)NC(=O)[C@H](CC(C)C)NC(C)=O)C(C)C)[C@@H](C)CC)[C@@H](C)O)C(N)=O)C(=O)O)C(=O)O)C(=O)O [compound 18] (Ac-LEGREKVRAK(Ac)I[Aib][Aib]EG[Nle]STWS[Aib]RKK(Ac)-X9) | 83% | 0.41 nM |
| CCCCCCCCCCCCCCCCCC(=O)NCCCC[C@H](NC(=O)CCOCCOCCOCCOCCOCCOCCOCCOCCOCCOCCOCCOCCNC(=O)[C@H](CCCCNC(C)=O)NC(=O)[C@H](CCCCN)NC(=O)[C@H](CCCNC(=N)N)NC(=O)C(C)(C)NC(=O)[C@H](CO)NC(=O)[C@H](Cc1c[nH]c2ccccc12)NC(=O)[C@@H](NC(=O)[C@H](CO)NC(=O)[C@H](CCCC)NC(=O)CNC(=O)[C@H](CCC(=O)O)NC(=O)C(C)(C)NC(=O)C(C)(C)NC(=O)[C@@H](NC(=O)[C@H](CCC(N)=O)NC(=O)[C@H](C)NC(=O)[C@H](CCCNC(=N)N)NC(=O)[C@@H](NC(=O)[C@H](CCCCN)NC(=O)[C@H](CCC(=O)O)NC(=O)[C@H](CCCNC(=N)N)NC(=O)CNC(=O)[C@H](CCC(=O)O)NC(=O)[C@H](CC(C)C)NC(C)=O)C(C)C)[C@@H](C)CC)[C@@H](C)O)C(N)=O [compound 21] (Ac-LEGREKVRAQI[Aib][Aib]EG[Nle]STWS[Aib]RKK(Ac)[PEG12]K(Stearoyl)-NH2) | 88% | – |
